Data: ChEMBL document CHEMBL1201862, “PubChem BioAssay data set” (2004)
Each block holds one molecule with its values, some of them ahead of it. Calls of active or inactive are those of the source.

How the values were obtained:
[1] = target: Cytochrome P450 2D6 (Homo sapiens, UniProt P10635); assay: qHTS Assay for Inhibitors and Substrates of Cytochrome P450 2D6. [Related pubchem assays: 410 ]; type: ADME; settings: read-out: Potency
[2] = target: Cytochrome P450 2C9 (Homo sapiens, UniProt P11712); settings: Potency
[3] = target: T1, Estrogen receptor (Homo sapiens, UniProt P03372);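 also: potency for inhibiting coactivator peptide recruitment to the receptor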
T1 sequence (P03372 whole entry): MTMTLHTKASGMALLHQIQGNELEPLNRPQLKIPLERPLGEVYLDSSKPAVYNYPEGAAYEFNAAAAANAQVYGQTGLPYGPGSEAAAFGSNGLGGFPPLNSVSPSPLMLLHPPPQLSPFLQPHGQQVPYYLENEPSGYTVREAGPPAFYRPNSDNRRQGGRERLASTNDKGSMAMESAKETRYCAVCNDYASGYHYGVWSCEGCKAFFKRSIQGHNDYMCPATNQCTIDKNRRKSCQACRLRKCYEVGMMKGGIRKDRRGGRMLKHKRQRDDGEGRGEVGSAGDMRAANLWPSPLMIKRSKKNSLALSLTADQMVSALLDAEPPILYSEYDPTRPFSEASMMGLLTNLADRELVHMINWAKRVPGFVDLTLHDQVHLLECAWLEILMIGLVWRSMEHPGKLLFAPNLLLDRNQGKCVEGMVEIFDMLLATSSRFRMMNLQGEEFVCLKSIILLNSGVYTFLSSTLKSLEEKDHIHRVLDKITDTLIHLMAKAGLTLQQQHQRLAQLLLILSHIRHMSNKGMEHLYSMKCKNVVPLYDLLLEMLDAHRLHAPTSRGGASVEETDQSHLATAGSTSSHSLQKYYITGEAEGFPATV

[4] = target: Peroxisome proliferator-activated receptor gamma/Nuclear receptor coactivator 1 (Homo sapiens, UniProt P37231); assay: (§1) TR-FRET dose response biochemical High Throughput Screening assay for agonists of the steroid receptor coactivator 1 (SRC-1) recruitment by the peroxisome proliferator-activated receptor gamma (PPAR gamma): non-selective agonists. [Related pubchem assays (depositor defined):AID1300, AID1808, AID504735, AID631]; type: protein assay
[5] = target: Peroxisome proliferator-activated receptor gamma/Nuclear receptor coactivator 3 (Homo sapiens, UniProt P37231); assay: as §1, with “3 (SRC-3)” for “1 (SRC-1)”, “assays: 1301 (Confirmation screen.), 1048 (Primary screen.)]” for “assays (depositor defined):AID1300, AID1808, AID504735, AID631]”; type: functional
[6] = target: Peroxisome proliferator-activated receptor gamma/Nuclear receptor coactivator 2 (Homo sapiens, UniProt P37231); assay: TR-FRET dose response biochemical High Throughput Screening assay for agonists of the steroid receptor coactivator 2 (SRC-2) recruitment by the peroxisome proliferator-activated receptor gamma (PPAR gamma): non-selective agonists. [Related pubchem assays: 1297, 1032 ]; type: functional
[7] = target: T2, CAAX prenyl protease 2 (Saccharomyces cerevisiae S288c, UniProt Q03530); type: biochemical
T2 sequence (Q03530 whole entry): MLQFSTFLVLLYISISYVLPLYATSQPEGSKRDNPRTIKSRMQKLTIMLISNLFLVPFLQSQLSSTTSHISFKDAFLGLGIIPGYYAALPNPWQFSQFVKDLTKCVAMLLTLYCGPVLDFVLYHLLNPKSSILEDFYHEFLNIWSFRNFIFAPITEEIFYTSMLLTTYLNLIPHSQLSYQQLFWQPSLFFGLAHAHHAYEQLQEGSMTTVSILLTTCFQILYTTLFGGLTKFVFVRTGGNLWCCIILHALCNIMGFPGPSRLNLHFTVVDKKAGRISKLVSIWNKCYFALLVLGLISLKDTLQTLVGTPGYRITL

[8] = target: G-protein coupled receptor 55 (Homo sapiens, UniProt Q9Y2T6); assay: selective activators of receptor GPR55 – imaging, U2OS cells, beta-arrestin-GFP redistribution, primary screen (AID 1961); type: functional
[9] = target: DNA dC->dU-editing enzyme APOBEC-3A (Homo sapiens, UniProt P31941); assay: Dose Response confirmation of small molecule APOBEC3A DNA Deaminase Inhibitors via a fluorescence-based single-stranded DNA deaminase assay. [Related pubchem assays (depositor defined):AID493011, AID493024]; type: functional
[10] = target: DNA dC->dU-editing enzyme APOBEC-3G (Homo sapiens, UniProt Q9HC16); type: functional;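 also: Dose-response counterscreen measuring inhibition of APOBEC3G DNA deaminase activity, run while confirming APOBEC3A inhibitors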
[11] = target: T3, Tyrosine-protein phosphatase non-receptor type 7 (Homo sapiens, UniProt P35236); assay: redox-active compounds inhibiting HePTP phosphatase – biochemical, fluorescence, mechanism study (AID 2068); type: functional
T3 sequence (P35236 whole entry): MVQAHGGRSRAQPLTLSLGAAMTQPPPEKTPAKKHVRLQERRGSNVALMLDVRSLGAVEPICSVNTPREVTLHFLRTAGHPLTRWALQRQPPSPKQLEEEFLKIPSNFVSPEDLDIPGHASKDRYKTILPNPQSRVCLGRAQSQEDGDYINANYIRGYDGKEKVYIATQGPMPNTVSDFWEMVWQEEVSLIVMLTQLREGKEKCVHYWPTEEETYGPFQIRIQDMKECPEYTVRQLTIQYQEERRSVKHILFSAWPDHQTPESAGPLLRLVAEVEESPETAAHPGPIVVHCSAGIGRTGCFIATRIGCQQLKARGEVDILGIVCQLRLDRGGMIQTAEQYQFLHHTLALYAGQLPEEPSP

[12] = target: T4, Dual specificity protein phosphatase 6 (Rattus norvegicus, UniProt Q64346); type: functional;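 also: confirmatory in vitro dose-response testing of MKP-3 inhibition; recombinant His-tagged MKP-3 made in E. coli BL21 with OMFP substrate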
T4 sequence (Q64346 whole entry): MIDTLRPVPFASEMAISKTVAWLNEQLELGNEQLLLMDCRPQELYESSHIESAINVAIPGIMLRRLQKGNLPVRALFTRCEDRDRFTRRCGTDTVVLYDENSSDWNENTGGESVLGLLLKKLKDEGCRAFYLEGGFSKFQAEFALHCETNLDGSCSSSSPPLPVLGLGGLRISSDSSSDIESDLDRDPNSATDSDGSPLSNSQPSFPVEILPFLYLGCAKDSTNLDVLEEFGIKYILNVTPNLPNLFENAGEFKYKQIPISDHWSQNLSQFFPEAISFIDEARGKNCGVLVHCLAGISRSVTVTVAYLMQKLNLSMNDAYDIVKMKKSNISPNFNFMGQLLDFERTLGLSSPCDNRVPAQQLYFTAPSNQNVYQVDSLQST

Cytochrome P450 2C9, sequence (P11712 whole entry): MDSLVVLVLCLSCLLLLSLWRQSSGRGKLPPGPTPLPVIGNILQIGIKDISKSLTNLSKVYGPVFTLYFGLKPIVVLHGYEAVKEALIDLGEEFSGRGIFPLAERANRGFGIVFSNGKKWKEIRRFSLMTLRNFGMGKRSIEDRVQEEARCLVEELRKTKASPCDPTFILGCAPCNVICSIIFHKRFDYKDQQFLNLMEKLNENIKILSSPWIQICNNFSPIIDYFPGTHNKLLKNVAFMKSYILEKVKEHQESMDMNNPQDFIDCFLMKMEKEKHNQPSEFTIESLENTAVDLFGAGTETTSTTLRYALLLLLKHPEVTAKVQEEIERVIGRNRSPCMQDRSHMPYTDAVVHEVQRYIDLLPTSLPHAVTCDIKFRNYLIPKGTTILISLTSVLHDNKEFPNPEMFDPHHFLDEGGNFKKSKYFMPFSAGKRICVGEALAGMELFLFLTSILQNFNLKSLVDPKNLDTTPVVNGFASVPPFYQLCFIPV
DNA dC->dU-editing enzyme APOBEC-3G, sequence (Q9HC16 whole entry): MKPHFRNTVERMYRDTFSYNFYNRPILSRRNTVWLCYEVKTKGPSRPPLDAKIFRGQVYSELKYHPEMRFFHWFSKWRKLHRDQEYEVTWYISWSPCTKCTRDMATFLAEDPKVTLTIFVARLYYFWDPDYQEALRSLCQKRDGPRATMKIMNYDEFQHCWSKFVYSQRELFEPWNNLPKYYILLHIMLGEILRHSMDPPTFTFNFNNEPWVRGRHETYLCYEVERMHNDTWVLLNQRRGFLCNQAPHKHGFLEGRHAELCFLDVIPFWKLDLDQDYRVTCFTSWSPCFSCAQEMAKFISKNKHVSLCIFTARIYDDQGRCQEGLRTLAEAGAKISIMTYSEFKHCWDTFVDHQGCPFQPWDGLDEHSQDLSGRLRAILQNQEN
G-protein coupled receptor 55, sequence (Q9Y2T6 whole entry): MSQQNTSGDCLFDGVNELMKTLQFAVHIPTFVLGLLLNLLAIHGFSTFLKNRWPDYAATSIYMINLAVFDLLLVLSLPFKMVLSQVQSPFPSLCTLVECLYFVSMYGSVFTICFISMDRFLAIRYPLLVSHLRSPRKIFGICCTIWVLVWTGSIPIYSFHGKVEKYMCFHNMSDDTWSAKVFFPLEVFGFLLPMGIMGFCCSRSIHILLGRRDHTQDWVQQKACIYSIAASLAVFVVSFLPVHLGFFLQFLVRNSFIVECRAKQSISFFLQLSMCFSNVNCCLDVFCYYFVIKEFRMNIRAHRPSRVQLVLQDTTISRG
DNA dC->dU-editing enzyme APOBEC-3A, sequence (P31941 whole entry): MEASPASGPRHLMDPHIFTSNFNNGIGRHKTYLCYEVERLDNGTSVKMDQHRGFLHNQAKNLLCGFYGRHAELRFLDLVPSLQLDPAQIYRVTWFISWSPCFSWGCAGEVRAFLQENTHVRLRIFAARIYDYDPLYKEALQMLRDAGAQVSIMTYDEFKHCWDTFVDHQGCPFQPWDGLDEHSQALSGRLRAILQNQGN
Peroxisome proliferator-activated receptor gamma/Nuclear receptor coactivator 1, sequence (P37231 whole entry): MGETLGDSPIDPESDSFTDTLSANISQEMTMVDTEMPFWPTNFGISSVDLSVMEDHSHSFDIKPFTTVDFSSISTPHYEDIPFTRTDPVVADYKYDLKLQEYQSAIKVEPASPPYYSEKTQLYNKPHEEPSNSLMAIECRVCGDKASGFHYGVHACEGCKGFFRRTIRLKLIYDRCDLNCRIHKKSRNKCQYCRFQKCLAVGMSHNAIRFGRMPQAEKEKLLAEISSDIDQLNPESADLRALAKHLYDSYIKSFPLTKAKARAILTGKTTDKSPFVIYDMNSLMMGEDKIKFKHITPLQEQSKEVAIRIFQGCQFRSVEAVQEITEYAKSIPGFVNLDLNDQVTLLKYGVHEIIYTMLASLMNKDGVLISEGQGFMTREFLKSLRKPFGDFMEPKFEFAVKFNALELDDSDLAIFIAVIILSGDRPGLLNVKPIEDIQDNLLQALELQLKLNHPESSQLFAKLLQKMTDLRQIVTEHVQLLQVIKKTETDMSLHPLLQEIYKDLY
Peroxisome proliferator-activated receptor gamma/Nuclear receptor coactivator 1, sequence (Q15788 whole entry, further chain): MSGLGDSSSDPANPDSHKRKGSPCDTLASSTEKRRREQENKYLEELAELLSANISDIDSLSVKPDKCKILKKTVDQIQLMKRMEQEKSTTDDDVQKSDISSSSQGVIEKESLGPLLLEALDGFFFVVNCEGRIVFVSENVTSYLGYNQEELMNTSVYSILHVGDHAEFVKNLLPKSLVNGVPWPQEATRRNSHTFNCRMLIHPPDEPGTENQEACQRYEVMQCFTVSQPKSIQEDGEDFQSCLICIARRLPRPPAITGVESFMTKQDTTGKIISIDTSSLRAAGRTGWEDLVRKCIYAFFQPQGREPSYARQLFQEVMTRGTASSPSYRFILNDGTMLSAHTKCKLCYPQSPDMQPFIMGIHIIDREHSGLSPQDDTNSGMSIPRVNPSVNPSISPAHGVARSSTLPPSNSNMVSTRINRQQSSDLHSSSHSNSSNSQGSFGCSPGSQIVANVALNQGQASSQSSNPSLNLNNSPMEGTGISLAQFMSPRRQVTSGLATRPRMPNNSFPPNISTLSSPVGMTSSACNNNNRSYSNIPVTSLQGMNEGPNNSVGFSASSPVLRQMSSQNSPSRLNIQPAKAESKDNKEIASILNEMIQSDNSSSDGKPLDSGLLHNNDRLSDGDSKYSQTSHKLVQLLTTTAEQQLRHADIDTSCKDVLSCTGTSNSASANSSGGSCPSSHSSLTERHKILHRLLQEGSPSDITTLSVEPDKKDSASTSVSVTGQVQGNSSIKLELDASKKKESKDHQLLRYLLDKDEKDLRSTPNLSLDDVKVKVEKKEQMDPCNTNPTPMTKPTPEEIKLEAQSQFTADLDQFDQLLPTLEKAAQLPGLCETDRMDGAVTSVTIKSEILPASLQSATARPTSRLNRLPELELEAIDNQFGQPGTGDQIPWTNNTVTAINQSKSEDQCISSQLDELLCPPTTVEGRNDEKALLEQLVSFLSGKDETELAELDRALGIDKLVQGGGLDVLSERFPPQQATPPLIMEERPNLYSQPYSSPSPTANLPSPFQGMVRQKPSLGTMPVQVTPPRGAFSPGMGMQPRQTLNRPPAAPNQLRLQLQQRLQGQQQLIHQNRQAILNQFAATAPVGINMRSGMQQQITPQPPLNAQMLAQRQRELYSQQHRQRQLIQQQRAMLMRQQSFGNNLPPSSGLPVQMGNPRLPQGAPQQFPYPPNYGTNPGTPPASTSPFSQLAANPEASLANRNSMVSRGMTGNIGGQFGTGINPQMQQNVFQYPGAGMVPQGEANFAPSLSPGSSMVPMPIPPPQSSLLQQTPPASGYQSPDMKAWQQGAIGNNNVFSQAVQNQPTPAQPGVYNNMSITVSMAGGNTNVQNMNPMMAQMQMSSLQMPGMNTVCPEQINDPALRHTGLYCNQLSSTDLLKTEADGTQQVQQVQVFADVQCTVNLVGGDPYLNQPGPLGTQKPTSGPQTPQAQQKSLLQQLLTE
Cytochrome P450 2D6, sequence (P10635 whole entry): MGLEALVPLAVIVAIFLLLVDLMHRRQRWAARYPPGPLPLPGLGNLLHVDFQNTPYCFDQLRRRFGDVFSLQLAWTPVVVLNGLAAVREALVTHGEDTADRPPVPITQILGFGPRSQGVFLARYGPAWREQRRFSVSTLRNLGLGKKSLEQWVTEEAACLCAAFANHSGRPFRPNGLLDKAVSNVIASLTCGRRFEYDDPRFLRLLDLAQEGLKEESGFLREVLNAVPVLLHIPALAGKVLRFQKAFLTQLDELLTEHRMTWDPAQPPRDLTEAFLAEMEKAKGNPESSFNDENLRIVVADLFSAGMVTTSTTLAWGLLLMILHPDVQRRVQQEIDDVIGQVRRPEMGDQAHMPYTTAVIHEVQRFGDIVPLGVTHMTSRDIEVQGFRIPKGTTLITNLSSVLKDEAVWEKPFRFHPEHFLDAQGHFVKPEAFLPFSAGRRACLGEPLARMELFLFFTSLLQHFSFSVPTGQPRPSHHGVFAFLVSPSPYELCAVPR

Structure (SMILES): O=c1c(-c2ccccc2)c(O)c2ccccc2n1-c1ccccc1
AC50 [7]: 5.31 µM (active)

Structure (SMILES): CCOCCCNC(=O)c1cnc2ccc(S(=O)(=O)Nc3cccc(OC)c3)cc2c1O
IC50 [3]: 35.2 µM (not active)

Structure (SMILES): COCc1nnc(NC(=O)CCSc2ccccc2)s1
EC50 [8]: > 32 µM (inactive)

Structure (SMILES): CCCC[n+]1c(C)sc2cc(OC)ccc21
IC50 [9]: 36 µM (active)
IC50 [10]: > 100 µM (inactive)

Structure (SMILES): COc1cc(C(=S)NCc2ccc(O)cc2)ccc1O
IC50 [11]: 10.1 µM (active)
IC50 [12]: > 100 µM (inactive)

Structure (SMILES): C[N+](C)(C)CCCCCC(=O)C=NO
IC50 [9]: 5.54 µM (active)
IC50 [10]: 12.6 µM (active)

Continued, values first:

AC50 [1]: 39.8 µM (inconclusive)
AC50 [2]: 31.6 µM (inconclusive)
Structure (SMILES): NCCC[C@@H](CC(=O)N[C@@H]1CCNC[C@H]1C(=O)N[C@H](CC(=O)N[C@@H](CCC(=O)O)CC(=O)O)Cc1c[nH]c2ccccc12)NC(=O)C[C@H](Cc1c[nH]c2ccccc12)NC(=O)[C@@H]1CNCC[C@H]1N

IC50 [3]: > 50 µM (not active)
Structure (SMILES): Cc1ccc2c(c1)N(CC(=O)NC1CCCc3ccccc31)C(=O)CO2 (centres undefined)

EC50 [4]: > 79.4 µM (inactive)
EC50 [5]: > 79.4 µM (not active)
EC50 [6]: > 79.4 µM (not active)
Structure (SMILES): CCn1c(=O)cc(SCC(=O)NCC2CCCO2)c2ccccc21 (centres undefined)

AC50 [2]: 6.31 µM (inconclusive)
Structure (SMILES): CC(C)C[C@@H](CC(=O)N[C@@H](CCC(=O)O)CC(=O)O)NC(=O)[C@@H]1CNCC[C@H]1NC(=O)C[C@@H](NC(=O)C[C@H](CO)NC(=O)[C@@H]1CNCC[C@H]1N)C(C)C

AC50 [2]: 25.1 µM (inconclusive)
Structure (SMILES): CC(=O)O[C@@H]1CC[C@]2(C)[C@H]3CC[C@]4(C)[C@H](C[C@H]5CCCC[C@@]54C(C)=O)[C@@H]3CC(=O)[C@@]2(O)C1

EC50 [8]: > 32 µM (inactive)
Structure (SMILES): COc1ccc(/C=C2\Sc3ccc(C(=O)NC4CC4)cc3N(C)C2=O)cc1OC

EC50 [4]: 19.7 µM (inactive)
EC50 [5]: > 79.4 µM (not active)
EC50 [6]: > 79.4 µM (not active)
Structure (SMILES): COc1ccccc1C1=NN(C(S)=Nc2ccccc2)C(c2ccco2)C1 (centres undefined)

IC50 [11]: 2.73 µM (active)
Structure (SMILES): O=C(NCCC1=CCCCC1)Nc1ccc2nc(-c3ccco3)c(-c3ccco3)nc2c1

IC50 [11]: 1.64 µM (active)
IC50 [12]: > 100 µM (inactive)
Structure (SMILES): COc1cc(C(=S)NCc2ccc(C)cc2C)ccc1O
